Assay results reported in PMC12384096, “TabsPBP2, a Pheromone-Binding Protein Highly Expressed in Male Antennae of Tuta absoluta, Binds Sex Pheromones and Tomato Volatiles” (Biomolecules, 2025).

Experiments:
[1] = molecular target: TabsPBP2; experiment: Competitive fluorescence binding assay with 1-NPN probe; design: species or system Tuta absoluta; details: competitive displacement of 1-NPN (2 µM), 2 μM TabsPBP2, pH 7.4; for Ki: calculated from IC50
Experimental: Fluorescence binding assays were performed on a Cary Eclipse Fluorescence Spectrophotometer (Agilent Technologies, Palo Alto, CA, USA) to quantify TabsPBP2’s binding affinity for sex pheromones and tomato volatiles. Using n-phenyl-1-naphthylamine (1-NPN) as a fluorescent probe (1 mM in methanol), 2 μM TabsPBP2 (in 50 mM Tris-HCl, pH 7.4) were titrated with 1-NPN (2–16 µM). Fluorescence was excited at 337 nm with emission scanned from 350 and 500 nm. Ligand binding affinities were measured via competitive assays with 1-NPN (2 µM). Titration ranges: 0.5–4 μM (sex pheromones) and 2–50 μM (tomato volatiles). The binding constant (K1-NPN) for 1-NPN was calculated, followed by calculation of the dissociation constant (Ki) from IC50 values using the equation: Ki = [IC50]/(1 + [1-NPN]/K1-NPN), where [1-NPN] represents the free concentration of 1-NPN.

[2] = system: T. absoluta females; design: method as in PMID 29404818; details: cited from earlier work
[3] = system: adult T. absoluta; design: method as in doi:10.1127/entomologia/2024/2399; details: cited from earlier work

SMILES: CC1=CC2C(CC1)C2(C)C (stereo not shown) [2-carene, 2-Carene]
- IC50 [1]: 7.47 ± 1.2 µM
- Ki [1]: 5.5 ± 0.92 µM

SMILES: CC/C=C\CCO [cis-3-hexen-l-ol, cis-3-Hexen-l-ol]
- EAG responses in females [2]: elicit EAG responses
- IC50 [1]: 19.5 ± 2.39 µM
- Ki [1]: 13.7 ± 1.9 µM

SMILES: COC(=O)c1ccccc1O [methyl salicylate, Methyl salicylate]
- EAG responses in females [2]: elicit EAG responses
- behavioral effect on adult T. absoluta [3]: repel
- IC50 [1]: 18.6 ± 1.38 µM
- Ki [1]: 13 ± 1.23 µM

SMILES: C=CC(=C)CCC=C(C)C [myrcene, Myrcene]
- EAG responses in females [2]: elicit EAG responses
- behavioral effect on adult T. absoluta [3]: repel
- IC50 [1]: 6.22 ± 0.85 µM
- Ki [1]: 4.68 ± 0.66 µM

SMILES: C=C1CCC2(C(C)C)CC12 (stereo not shown) [sabinene, Sabinene]
- IC50 [1]: 13.6 ± 1.85 µM
- Ki [1]: 11.4 ± 1.88 µM

SMILES: CC1=CCC2CC1C2(C)C (stereo not drawn) [α-pinene, α-Pinene]
- IC50 [1]: 9.98 ± 0.98 µM
- Ki [1]: 7.48 ± 0.57 µM

SMILES: CC1=CC=C(C(C)C)CC1 [α-terpinene, α-Terpinene]
- IC50 [1]: 14.6 ± 5.16 µM
- Ki [1]: 10.2 ± 3.6 µM
